One test concerns NLRP3 inflammasome. As to the kind of experiment: JE on IL-1β production and caspase-1 activation by BMDMs upon NLRP3 activation. The settings on record: for IL-1β production upon NLRP3 activation with ATP: 5 mM ATP. It counts as cell-based, mouse. As to the method:
(§1) FIG. 19. The Effect of JE on IL-1β Production by BMDMs Upon NLRP3 Activation. Macrophages were pretreated with the metabolite JE at a concentration of 50 μM overnight at 37° C., 5% CO2. The following day, macrophages were primed with LPS at 500 ng/ml for 4 hours and then activated by ATP for 1 hour at 37° C., 5% CO2. Another approach is to prime the cells with 10 ng/ml LPS for 4 hours, then pretreat with JE overnight. The following day, macrophages were activated with 5 mM ATP for an hour at 37° C., 5% CO2. Supernatants were collected, and […] was measured using ELISA. Data are presented as mean±SEM (n=6). **p<0.01. One of three experiments is shown.
as §1, with “20.” for “19.”
FIG. 21. The Impact of JE on Caspase-1 Activation After Priming the Cells with LPS. BMDMs were cultured and seeded as described before. Macrophages were first primed with LPS for 4 hours at 37° C. with 5% CO2. After that, they were treated with the metabolite JE for 1 (LPS1ATP), 2 (LPS2ATP), and 3 (LPS3ATP) hours. Then, the cells were exposed to media containing 5 mM ATP for 1 hour at 37° C. with 5% CO2. Finally, the supernatants were collected and the level of IL-1β was measured using ELISA. Data are presented as mean±SEM (n=6). *p<0.05; ***p<0.001. One of two experiments is shown.
Next, we explored how JE inhibits caspase-1 activation as well as IL-1β production. As stated above, NLRP3 activation adopts a two-step dogma: priming with LPS, followed by activation by ATP, nigericin, or MSU crystals. […] To achieve that, JE was used to pretreat BMDMs overnight at 37° C., 5% CO2; the next day, macrophages were primed with LPS for 4 hours, then stimulated with ATP for an hour. I collected the supernatant and measured IL-1β by ELISA.
In an attempt to determine whether JE inhibits the priming or the activation step, BMDMs were stimulated with LPS, then the metabolite JE was used to treat the cells overnight at 37° C., 5% CO2. The following day, macrophages were stimulated with ATP for an hour, then, supernatant was collected to measure IL-1β by ELISA. PBS was used as a control to JE in this experiment. In both conditions, I did a western blot on caspase-1 to elucidate whether JE inhibits caspase-1 activation or not.
It was also evident by the absence of active caspase-1 in the supernatant on western blot analysis (data not shown). To determine whether JE inhibits the activation signal, instead of pretreating the macrophages with JE overnight. BMDMs were treated with the metabolite JE for 1 hour, 2 hours, and 3 hours after priming with LPS for 4 hours; then 5 mM of ATP was.

Test [1] relates to human corneal epithelial cells (HCECs). As to the kind of experiment: JE on TLR5 agonist (flagellin)-induced IL-6 in HCECs. It counts as cell-based. The settings on record: JE 50 μM overnight, flagellin 6 or 24 hours, ELISA. As to the method: FIG. 11. Probiotic bacteria metabolite JE inhibits TLR5 agonist-induced IL-6 in HCECs. HCECs were pretreated with 50 µM JE overnight and then stimulated with 0.1 μg/ml flagellin for the indicated time. The effect of TLR5 agonist (flagellin) on IL-6 secretion were measured in cell culture supernatants by ELISA. *, P<0.05.
To test if JE could be used as a therapeutic agent, we tested its effects on a dry eye disease model. Dry eye disease is characterized by inflammation in ocular surface. First, we tested if JE can inhibit production of pro-inflammatory cytokine IL-6 by corneal epithelial cells stimulated by TLR5 agonist flagellin. Thus, SV 40 immortalized human corneal epithelial cells (HCECs) were with JE at 50 μM overnight and they are subsequently exposed to TLR5 agonists (flagellin isolated from Pseudomonas aeruginosa) for 6 or 24 hours. The cell culture supernatants were collected and used for ELISA to determine the concentrations of IL-6. […] Probiotic bacteria-derived metabolite (JE) suppressed the TLR5 agonist-induced IL-6 production (FIG. 11).
(An ELISA detects its analyte on a solid surface through an enzyme-linked reagent.)

For `CC(=O)O[C@@H]1CC[C@H]2[C@H]3CC[C@H]4CC(F)(F)CC[C@]4(C)[C@H]3CC[C@]12C` [JE, 3,3-Difluoro-5-alpha-androstan-17-beta-yl acetate], the “IL-β upon activation of NLRP3 inflammasome” value in the test on NLRP3 inflammasome (JE 50 μM pretreatment overnight, LPS priming 4 hours, ATP 1 hour) is on record as “completely abolished”. For the same compound, the “IL-1β production upon NLRP3 activation with ATP” value in the test with NLRP3 inflammasome (JE for 1 hour after priming with LPS 4 hours) was “did not have the same effect”; in the test on NLRP3 inflammasome (JE for 2 hours after priming with LPS 4 hours), “did not have the same effect”; with NLRP3 inflammasome (JE for 3 hours after priming with LPS 4 hours) it was “significantly decrease”. For the same compound, in the test on NLRP3 inflammasome (JE pretreatment, LPS priming, ATP), the “active caspase-1 in the supernatant (western blot)” value is reported as “absence”. For the same compound, the “TLR5 agonist-induced IL-6 production” value in test [1] is “suppressed”.

Source of the values: patent publication US20250000874A1, “BACTERIAL METABOLITES AND THEIR USE IN REDUCING INFLAMMATION” (LOYOLA UNIVERSITY OF CHICAGO, priority 2023, published 2025).
